Measurements taken from a melting point compilation (Tetko et al.; mined from patent text by program, amines drawn as free bases though some values may be those of a salt).

Compound	melting point
CC(C)(C)C(=O)C(Br)Cc1ccc(Cl)cc1 (configuration not stated)	48 to 50 °C
O=C(NCCO)NC1CCCc2ccccc21 (configuration not stated)	146 to 149 °C
CN1C(=O)N(N=Cc2cccnc2)Cc2cc(C(F)(C(F)(F)F)C(F)(F)F)ccc21	> 300 °C
Cc1ccc(NCc2c(F)c(F)c(C(F)(F)F)c(F)c2F)cc1C(=O)O	84 °C
Nc1ccn(C2OC(CO)C(O)C2O[N+](=O)[O-])c(=O)n1 (configuration not stated)	151 to 153 °C
CC(C)(C)c1cc(C(=O)c2cccs2)cc(CN(C2CCCCC2)C2CCCCC2)c1O	161 to 162 °C
Oc1cc2c(c(Cl)c1Cl)C(O)C(C1CCCC1)C2 (configuration not stated)	158 to 160 °C
CCCc1nc2c(N)nc(C)c(C)c2n1CCCCS(C)(=O)=O	152 to 153 °C
C#Cc1cc2cn[nH]c2c(C(=O)NC2(C3CC3)CC2)c1NC(=O)c1cc(C(F)(F)F)nn1-c1ncccc1Cl	246 to 248 °C
COC(=O)c1cc(OCCCN2CCN(c3cccc4sccc34)CC2)n(C)n1	109 to 110 °C
CC(C)OC(=O)c1ncn2c3cccc(Cl)c3c(=O)n(C)c12	216 to 220 °C
ON=C(Cn1ccnc1)c1ccc(Cl)cc1Cl	205 to 206 °C
CCS(=O)(=O)Nc1c(C)cccc1C	90 °C
N#Cc1cccc(CCC(=O)O)c1	95 °C
O=C1Cc2cccc(Oc3c(Cl)cccc3Cl)c2N1	> 230 °C
O=C(O)C1=CN(C2CC2)C(c2ccc3c(c2)OCO3)CC1=O (configuration not stated)	122 to 124 °C
COc1nc(NC(C)C)nc(NC2CC2)n1	77 to 80 °C
CC(=O)c1ccccc1CC1CNC(=O)O1 (configuration not stated)	85 to 86 °C
COC(=O)C1CCC(c2csc(NC(=N)N)n2)C1 (configuration not stated)	124 to 126 °C
NC1=C(N=O)C(=O)N2CCN=C2N1Cc1ccc(Cl)cc1	238 to 241 °C
CCCCCCCCCN1C(=O)C=CC1=O	45 to 47 °C
Cc1ncc(CCCOc2c(C)cc(C#N)cc2C)s1	64 to 66 °C

Compound	melting point
OCc1cc(OC2CCCC2)c(OC(F)F)cn1	85 to 86 °C
CNC(=O)N1N=C(c2ccc(N)cc2)c2cc(Cl)ccc2CC1C (configuration not stated)	115 to 118 °C
COc1ccc(N(C)CC2CCOCC2)cc1N	97 to 99 °C
Cc1ccc(OCC2CO2)c([N+](=O)[O-])c1[N+](=O)[O-] (configuration not stated)	121 to 123 °C
CC(C)(CO)NS(=O)(=O)c1cc(NC(=O)c2cnn3c(C(F)(F)F)cc(-c4ccc(C(F)(F)F)cc4)nc23)c(Cl)s1	223 °C
CN(C)c1cccc(OC(=O)NC2C(=O)N(CCC3C4CC5CC(C4)CC3C5)c3ccccc3N(c3ccccc3)C2=O)c1 (configuration not stated)	188 to 189 °C
CNc1cc(F)ccc1C(=O)Cc1nnnn1C	132 to 134 °C
CCOC(=O)CC(=O)c1cc(F)c(F)c(Br)c1Cl	47 to 51 °C
CCCCCCCCCOc1cc(C(N)=O)ccn1	108 to 110 °C
Sc1ncc(-c2ccc(Cl)cc2)[nH]1	308 °C
CCOC(=O)Cc1cnc(N=C2SCC3Cc4ccccc4CN23)s1 (configuration not stated)	132 °C
CC12C=CC(=O)C=C1C(Br)CC1C2CCC2(C)C(=O)CCC12 (configuration not stated)	188 to 190 °C
O=[N+]([O-])c1cnccc1NCc1ccc(CO)o1	135 °C
CC(C)c1ccc2c(c1)C=C(C(=O)O)CC2	160 to 162 °C
CC(C)(C)CNc1cc(Cl)nc(N2CCCC2)n1	130 to 135 °C
CCCCCCCCCCCCCCCC(CC)OCC(=O)c1ccccc1 (configuration not stated)	50 to 52 °C
O=C(CNC(=O)c1ccc([N+](=O)[O-])c(I)c1)OCC(Cl)(Cl)Cl	98 to 100 °C
O=C(C=Cc1ccc(O)cc1)NCCO	149 to 151 °C
CCOC(=O)c1nnc(-c2cc3sc(C)c(N(C)S(=O)(=O)c4cccs4)c3[nH]2)s1	209 °C
CCCOc1nc2sc(Cl)cc2c(=NC(=O)OC)n1CCC	65 to 67 °C
COC(=O)c1ccccc1S(=O)(=O)NC(=O)Nc1nc(F)cc(OC(F)(F)F)n1	157 to 161 °C

The remaining lines, values ahead:

melting point	Compound
180 °C	COc1ccc(Oc2ccc(C(=O)N(C3CCCC3)C3CCCC3)cc2)cc1OC
168 to 179 °C	CC(C)[C@]1(CCc2ccc(O)cc2)CC(O)=C(Sc2cc(C(C)(C)C)cc3sc(N)nc23)C(=O)O1
94 to 95 °C	CCOC(=O)[C@@H](CC(=O)c1ccc2ccccc2c1)NC(C)=O
319 to 320 °C	O=c1[nH]c(=Cc2ccc3ccccc3n2)c(=O)[nH]c1=Cc1ccc(F)cc1
139 °C	O=C(Nc1cc2ccccc2cn1)c1nccnc1NCc1ccncc1
110 to 112 °C	COC(=O)c1ccc(OCC(O)c2cc3cc(C(C)(C)C)ccc3o2)cc1 (configuration not stated)
72 to 73 °C	COc1cccc(C(=O)CC(=O)c2cc(NC(C)=O)ccc2O)c1
115 to 117 °C	N#Cc1ccccc1Nc1cc2c(cc1Nc1ccccc1)C(=O)NC2=O
242 °C	CNCCCOc1ccc(-c2ccc(C(=O)O)cc2)cc1-c1ccc2c(c1)C(C)(C)CCC2(C)C
90 to 100 °C	CCOCCn1c(N2CCCN(CCC3(c4ccc(OC)c(OC)c4)CCN(C(=O)c4cc(OC)c(OC)c(OC)c4)C3)CC2)nc2ccccc21 (configuration not stated)
87 to 92 °C	CCOC(=NC(=O)c1ccco1)N1Cc2ccccc2-c2ccccc2C1
138 to 140 °C	CN1CCC(=C2c3ccccc3CC(=O)c3ccccc32)CC1
255 to 257 °C	O=c1c2c(Cc3ccccc3)n[nH]c2c2ccccc2n1-c1ccccc1
120 to 123 °C	CC(C)(C)C(=O)c1ccc(C(=O)N[C@@H](Cc2ccccc2)C(N)=O)cc1
238 °C	CCNS(=O)(=O)c1ccc(N2N=C(C)C(=CNc3ccccc3OCC)C2=O)cc1
87 to 88 °C	COCCOc1c2ccccc2c(C=O)c2ccccc12
185 to 188 °C	C=COc1ccccc1S(=O)(=O)NC(=O)c1ccc(Cc2cn(C)c3ccc(NC(=O)OC4CCCC4)cc23)c(OC)c1
175 to 176 °C	CC1(C)OC(c2ccc(S(C)(=O)=O)cc2F)=C(c2ccccc2)C1=O
164 °C	COc1cc(/C=C2/C(C)=C(CC(=O)O)c3cc(F)ccc32)cc(Br)c1OC
227 to 229 °C	COc1ccc(-c2c(Cl)c(CN3C(=O)CCC3=O)nc3sc4c(c23)CC(C)(C)C(O)C4)cc1 (configuration not stated)
247 to 249 °C	COC(=O)c1cnc2c3cc(NC(=O)CC(C)(C)C)ccc3ncn2c1=O
69 to 70 °C	COc1ccc(Cl)c(C)c1OC
43 to 45 °C	CC(C)(C)C(=O)CC(=O)c1ccccc1
203 to 205 °C	CC(C#N)(Cn1ncc2cc([N+](=O)[O-])ccc21)NC(=O)c1ccc(OC(F)(F)F)cc1 (configuration not stated)
145 to 150 °C	CCc1nc2cc(C(=O)O)c(Cl)cc2n1-c1ccc(CCNC(=O)NS(=O)(=O)c2ccc(C)cc2)cc1
135 to 136 °C	CCc1[nH]n(C2CCCC2)c2nc(-c3ccccc3OC)nc(=O)c1-2
175 to 176 °C	Cc1cc(OCc2cnc(-c3cccc(C(F)(F)F)c3)nc2C2CC2)ccc1OC(C)(C)C(=O)O

melting point	Compound
158 to 160 °C	CCCNc1ccc2oc([N+](=O)[O-])c(-c3ccccc3)c2c1
185 to 187 °C	COc1cc(OC)c(-c2cc3ccccc3[nH]2)cc1C=CC(=O)c1ccc(S(N)(=O)=O)cc1
241 to 243 °C	CNc1nc(-c2ccccc2)c(-c2nc3ccccc3c(=O)n2-c2ccccc2OC)s1
213 to 229 °C	O=C(O)C(c1ccccc1)N1C(=O)c2cccc([N+](=O)[O-])c2C1=O (configuration not stated)
147 to 148 °C	CCCCn1c(=O)n(OCc2ccccc2)c(=O)c2cc(F)c(Cl)nc21
95 to 98 °C	CC(C)[C@H](NC(=O)N(C)Cc1csc(NC(=O)OC(C)(C)C)n1)C(=O)N[C@@H](Cc1ccccc1)[C@@H](O)C[C@H](Cc1ccccc1)NC(=O)OCc1cccnc1
109 to 112 °C	COc1cc(O)c(CN2CCc3cc(O)ccc3C2)c(OC)c1
125 to 128 °C	CCC(=O)CN1C(=O)C(NC(=O)Nc2cccc(C)c2)N=C(C)c2cccc(C)c21 (configuration not stated)
158 to 160 °C	Cc1ccc2c(c1)c1cc(C(=O)N3CCOCC3)sc1n2C
297 to 298 °C	CC(C)(C)c1ccc(C(=O)Nc2cn3cc(-c4cnc[nH]4)ccc3n2)cc1
86 to 88 °C	COc1cc(OC)c(F)c(N2Cc3cnc(NC[C@H](O)[C@@H](O)CO)nc3N(C3CCCC3)C2=O)c1
92 to 95 °C	C[Si](C)(C)CCC1=C(OC(=O)c2ccccc2)C(=O)c2ccccc2C1=O
78 to 88 °C	CCOC(=O)C1CCN(C(=O)/C=C/c2ccc(Sc3ccc4c(c3)OCCO4)c([N+](=O)[O-])c2)CC1
109 °C	Brc1cncc(-c2ccccc2Oc2ccccc2)c1
145 to 146 °C	c1ccc2c(c1)CCc1ccccc1C2CNc1ccncc1
202 to 204 °C	O=C(CC1=C(n2nc(-c3c(-c4ccccc4)nn4ccccc34)ccc2=O)CCCC1)N1CCOCC1
105 to 107 °C	COc1ccc2cc([C@H](C)C(=O)OCC(=O)COC(=O)c3ccc(CO[N+](=O)[O-])cc3)ccc2c1
180 to 181 °C	CCS(=O)(=O)c1ccc(-c2coc3ccc(-c4nnc(C)o4)cc23)c(Cl)c1
202 to 203 °C	Oc1ccc(-c2nnc(Cc3ccc(Oc4ccccc4)cc3)o2)cc1
184 to 186 °C	O=C(O)Cn1c(=O)c2ccccc2n(CCCCN2CCC(OC(c3ccccc3)c3ccccc3)CC2)c1=O
140 to 142 °C	O=C1CCc2cc(OCc3ccccc3)c(O)cc21
147 to 148 °C	O=C(CCc1ccccc1)N[C@H](Cc1ccc(C(F)(F)F)cc1)[C@@H](O)c1ccccc1 (racemic)
303 to 305 °C	COc1ccc(C=Cc2ccccc2)c(-c2ccc(-c3cc(OC)ccc3C=Cc3ccccc3)n2-c2ccc(C)cc2)c1
174 to 175 °C	O=[N+]([O-])c1cnc2ccc(Cl)cc2c1Nc1ccccc1
160 to 162 °C	O=C(O)c1c[nH]c(SCc2ccccc2)c1SCc1ccccc1
375 to 377 °C	NC(=O)c1nc(-c2cccc(O)c2)nc2c1[nH]c(=O)n2-c1ccc(Cl)cc1Cl
177 to 178 °C	COC1CCN(c2ccn3nc(-c4ccccc4)c(-c4ccc(=O)n(C(C)C)n4)c3c2)CC1
